This note sets out measurements from patent US5346913A, “N-iodopropargyl hydantoin compounds, compositions, preparation, and use as antimicrobial agents” (Rohm and Haas Company, priority 1992, dated 1994).

The structures appear in SMILES notation. Values after ≈ are worked out from the molar mass of the structure shown.

Assay [1] has as its system Pseudomonas aerugenosa. Nature of the assay: MIC, broth two-fold serial dilution test, Pseudomonas aerugenosa (Psae). The format is cell-based. The text has this: (§1) The compounds identified with a prime (') were the non-iodo analogues of the invention compounds, i.e., the compounds of formula III or IV. All data are reported in ppm of active ingredient required to control the respective organism. The indication "No In." means that the compound had no inhibitory activity at 500 ppm which was the maximum tested, and so if the "No In." compound were active, the minimum inhibitory concentration would be above 500 ppm. The comparative tests were not run side-by-side, but were run on different days using the same methods. […] A minimum inhibitory concentration (MIC) value is obtained using a broth, two-fold serial dilution test performed as follows: […] A volume of the stock solution is dispensed into culture media to give an initial starting test concentration of the compound of 500 ppm or 250 ppm. When the test is ready to be done, each vessel in the dilution series, except the first vessel, contains an equal volume of compound free broth. The first vessel contains twice the volume of broth with the starting concentration of test compound. One half of the broth from the first vessel is transferred to the second vessel. After being mixed, one half the resulting volume is removed from the second vessel and transferred to the third vessel. […] Each vessel is then inoculated with a cell suspension of the appropriate test organism. Bacteria are grown in broth and fungi on agar […] is grown in cooling tower media for a time and at a temperature appropriate to the species being tested. At the end of the growth period, the broth is vortexed to disperse the cells. In the case of fungi, the spores are harvested by pipetting water onto the slant and dislodging the spores with a sterile loop. The cell/spore suspension is standardized by controlling incubation time, temperature, and the volume of the diluent. The suspension is then used to inoculate the vessels containing the broth compound. The vessels are then incubated at the appropriate temperature. After the incubation, the vessels are examined for growth/no growth. The MIC is defined as the lowest concentration of compound that results in complete inhibition of growth of the test organism. BACTERIA: Pseudomonas fluorescens (Ps.fl), gram negative; Pseudomonas aerugenosa (Ps.ae), gram negative; Escherichia coli (E.c), gram negative; and Staphylococcus aureus (S.a), gram positive.

For assay [2], the system named is Escherichia coli. Description: MIC, broth two-fold serial dilution test, Escherichia coli (Ecol). The format is cell-based.
Description: as §1

Assay [3] concerns Staphylococcus aureus. Description: MIC, broth two-fold serial dilution test, Staphylococcus aureus (Saur). The format is cell-based.
Description: as §1

Assay [4] deals with Aspergillus niger. Nature of the assay: MIC, broth two-fold serial dilution test, Aspergillus niger (Anig). The format is cell-based. The note with it: TSB.
Description: as §1, with “INDUSTRIAL FUNGI: Aspergillus niger (A.n); Aureobasidium pullulans (A.p)” for “BACTERIA: Pseudomonas fluorescens (Ps.fl), gram negative; Pseudomonas aerugenosa (Ps.ae), gram negative; Escherichia coli (E.c), gram negative; and Staphylococcus aureus (S.a), gram positive.”

Assay [5] concerns Pythium ultimum. Description: In-vitro plant disease test, PYU. The format is cell-based. The note with it: Globisporangium ultimum, read-out: % Control PYU.
Assay [6] concerns Xanthomonas campestris. Nature of the assay: microbe, parasite or virus in culture. The note with it: read-out: % Control XAN. In kind it is cell-based.
Assay [7] deals with Piricularia oryzae. Nature of the assay: microbe, parasite or virus in culture. In kind it is cell-based. The note with it: read-out: % Control PIR.
Assay [8] concerns Phytophthora capsici. Nature of the assay: In-vitro plant disease test, PHY. The format is cell-based. The settings on record: read-out: % Control PHY.
Assay [9] deals with Rhizoctonia solani. Description: microbe, parasite or virus in culture. The format is cell-based. The note with it: read-out: % Control RHI.
The test system of assay [10] is Pseudoperonospora cubensis. Nature of the assay: whole plant or invertebrate. In kind it is in vivo.
Assay [11] relates to Piricularia oryzae. Description: whole plant or invertebrate. The format is in vivo. The settings on record: Pyricularia oryzae, read-out: % Control RB.
For assay [12], the system named is Phytophthora infestans. Nature of the assay: whole plant or invertebrate. The format is in vivo. The settings on record: for pest or weed control at 200 ppm: read-out: % Control TLB, greenhouse test (Table 4), 200 ppm.
The test system of assay [13] is Erysiphe graminis (f. sp. tritici). Nature of the assay: whole plant or invertebrate. The format is in vivo.
For assay [14], the system named is Puccinia recondita (f. sp. tritici Races PKB and PLD). Nature of the assay: whole plant or invertebrate. In kind it is in vivo.
Assay [15] deals with Fusarium roseum. Description: microbe, parasite or virus in culture. The note with it: Fusarium sambucinum, read-out: % Control FUS.
Description: FUS Fusarium roseum (Ascomycete)
Transfers in steps 1 and 2 are done in a laminar flow hood. All 8 fungi and the bacterium used in this test are transferred and maintained on potato dextrose agar plates each week (2 plates/organism). Organisms are used when they are the following ages: a. […] Culture flasks are inoculated with 6 mycelial plugs each (except for Pythium which is inoculated with only 3 plugs) taken from PDA plates. All liquid shaker cultures are used after 2 days growth.
PYU, PHY, RHI and FUS cultures are ground up (2-3 5 second bursts in a blender) and all but Pythium and Phytophthora are filtered through a double layer of sterile cheesecloth to remove large mycelial clumps. Ten ml of the culture solutions of R. solani and F. roseum are added to 90 ml of YSB and 10 ml of the P. capsici is added to 90 ml ASB. […] The inoculum mixtures are placed in microtiter plates using a 12-tipped pipet. 175 μl (single dose) or 100 μl (dose-response test) of inoculum broth is placed in each well of the microtiter plates. The plates with inoculated media are placed in the refrigerator overnight. There are two replications per treatment.
This operation is carried out in a chemistry hood. Six microtiter plates have 245 microliters of sterile water added to their wells ahead of time. 10 Mg a.i. of the compounds are placed in 1 ml 1:1 acetone:methanol. 5 Microliters of this solution (6 microliters in the case of the 50 ppm dose) is pipetted into the microtiter plates containing the sterile water according to the grid. There are 45 compounds and 3 scattered control treatments per plate. There are 2 replicates per treatment. 25 Microliters of solution is transferred to the inoculated plates with a 96 well replicator. The replicator is flame sterilized with alcohol, rinsed with sterile water, and blotted on sterile paper towels between each transfer.
The test system of assay [16] is Pellicularia filamentosa (f. sp. sasiki). Nature of the assay: whole plant or invertebrate. The format is in vivo. The note with it: 120 h; read-out: % Control RSB.
Assay [17] relates to Septoria nodorum. The settings on record: in vivo.
Assay [18] deals with TLB, CDM, WLR, SNW, WPM. The note with it: in vivo.
In assay [19] the test system is Cochliobolus sativus. Nature of the assay: In-vitro plant disease test, HEL. In kind it is cell-based. The note with it: Bipolaris sorokiniana, read-out: % Control HEL.
Where [20] appears, read: Pseudoperonospora cubensis, in Cucumis sativus, 168 h, read-out: % Control CDM.
Where [21] appears, read: Phytophthora infestans, in Solanum lycopersicum, 96 h.
Setting [22] is: Blumeria graminis, read-out: % Control WPM.
The mark [23] stands for this setting: Puccinia recondita, 240 h, read-out: % Control WLR.

As usually defined, the MIC is the lowest concentration found to suppress growth. A high value points to weaker potency. In the case of `CC1(C)NC(=O)N(CC#CI)C1=O` [Compound 12], the MIC in assay [1] (M9G) is 250 µg/mL (≈ 856 µM); in assay [1] (TSB), greater than 500 µg/mL; in [2] (M9G) it was 125 µg/mL (≈ 428 µM); in assay [2] (TSB) it was 250 µg/mL (≈ 856 µM); in [3] (M9G), 125 µg/mL (≈ 428 µM); in assay [3] (TSB), 16 µg/mL (≈ 54.8 µM). This molecule returned an MIC in assay [4] of 8 µg/mL (≈ 27.4 µM). Also, the inhibition of growth at 25 ppm in assay [5] was determined as 100%; in assay [6], 0%; in [7] it was 90%; in [8], 100%; in assay [9], 100%; in [15], 75%. Further, the pest or weed control at 200 ppm in assay [10] (setting [20]) was found to be 0%; in [11], 95%; in [12] (setting [21]), 0%; in assay [13] (setting [22]) it was 0%; in assay [14] (setting [23]), 25%.
Take `O=C1N(c2cc(Cl)cc(Cl)c2)C(=O)C2(CCCCC2)N1CC#CI` [Compound 5, 1-(3-iodo-2-propynyl)-3-(3,5-dichlorophenyl)-5,5-spirocyclohexane-hydantoin]: the MIC in assay [1] (M9G), in assay [1] (TSB), in assay [2] (M9G), in [2] (TSB), in [3] (M9G) and in [3] (TSB) was greater than 500 µg/mL in each case. The molecule further showed an MIC in assay [4] greater than 500 µg/mL. Further, the pest or weed control at 200 ppm amounted to 40% in [10] (setting [20]), 95% in assay [12] (setting [21]), 0% in assay [13] (setting [22]) and 0% in assay [14] (setting [23]). Moreover, in assay [10] (in vivo), the “percent disease control CDM” value stood at 100.0%. Besides, the pest or weed control at 50 ppm was determined as 50% in [11]; 25% in assay [16]; 0% in assay [12] (Phytophthora infestans, in Solanum lycopersicum, 96 h, read-out: % Control TLB, secondary greenhouse test (Table 5), 50 ppm); 50% in assay [13] (setting [22]); 0% in [14] (setting [23]). In addition, the “percent disease control TLB” value in assay [12] (advanced greenhouse test (Table 6), 0.25 kg a.i./ha) is 28.0%. In addition, the “percent disease control WPM” value in assay [13] (in vivo) was 67.0%. Moreover, the “percent disease control WLR” value in assay [14] (in vivo) was found to be 80.0%. The “percent disease control SNW” value in assay [17] was found to be 72.0%. The “percent disease control Average” value in [18] was 69.4%.
For the molecule `CC1(C)C(=O)N(CC#CI)C(=O)N1CC#CI` [Compound 11], the MIC in assay [1] (M9G) was 125 µg/mL (≈ 274 µM); in assay [2] (M9G) it was 64 µg/mL (≈ 140 µM); in assay [3] (M9G) it was 32 µg/mL (≈ 70.2 µM); in assay [4], less than 4 µg/mL. The inhibition of growth at 25 ppm in [6] amounted to 0%; in assay [7] it was 100%; in assay [19], 90%; in [9], 100%; in assay [15], 0%. For the same molecule, the inhibition of growth at 50 ppm in assay [6] is 0%; in assay [7] it was 100%; in [9], 100%; in [15] it was 100%. For the same molecule, the pest or weed control at 100 ppm in assay [10] (setting [20]) is 100%; in assay [11], 95%; in assay [12] (Phytophthora infestans, in Solanum lycopersicum, 96 h, read-out: % Control TLB, greenhouse test (Table 4), 100 ppm), 0%; in [13] (setting [22]), 85%; in assay [14] (setting [23]), 50%.
